Data set [1] can be described thus: Tissue distribution studies (tissue concentrations by LC-MS/MS). Type of data set: in vivo, male C57Bl/6 mice. The following applies: for AUC(4-hr) Heart / AUC(4-hr) Liver: mice, targeted dose 0.100 mg/kg; for brain levels of parent acid Compound 15: PO dosing (0.1 mg/kg) of the amide prodrug, compared to dosing Compound 15 itself, FIG. 1. On the procedure: For tissue concentration studies in male C57Bl/6 mice, test compounds are formulated as NMP/solutol/PBS solution, at a concentration of 0.05 mg/mL and dosed at 2 mL/kg with the targeted dose of 0.100 mg/kg via SC injection or oral dosing. […] The pharmacokinetic parameters are determined by non-compartmental methods using WinNonlin. Area under the drug curves (AUC) values are determined by trapezoidal approximation; tissue-to-tissue ratios are determined by comparing AUC values.

The next data set concerns the target T1, TRα (Homo sapiens, UniProt P10827).
T1 construct: expressed in transfected cells; host or cells: HEK293
T1 sequence (P10827 163-410 isoform P10827-2 limits assumed): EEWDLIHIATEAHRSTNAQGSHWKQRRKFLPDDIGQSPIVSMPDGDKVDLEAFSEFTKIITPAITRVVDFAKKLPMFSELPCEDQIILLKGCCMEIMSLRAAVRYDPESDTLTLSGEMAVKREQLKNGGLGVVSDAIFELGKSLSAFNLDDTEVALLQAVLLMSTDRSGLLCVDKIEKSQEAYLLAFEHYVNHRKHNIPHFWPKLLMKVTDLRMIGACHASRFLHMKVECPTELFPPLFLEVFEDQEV
The data set can be described thus: Thyroid-hormone reporter-gene assay (TRα-Gal4 hybrid, luciferase, HEK293). Type of data set: cell-based. On the procedure: (§1) Compounds were tested for thyroid-hormone receptor activity using TR reporter-gene assays. Reporter cells used in the assays express a TR-receptor hybrid (either TRα or TRβ) in which the native N-terminal DNA binding domain (DBD) has been replaced with that of the yeast Gal4 DBD. The reporter gene, firefly luciferase, is functionally linked to the Gal4 upstream activation sequence (UAS). Both cell lines were derived from human embryonic kidney (HEK293).
(§2) Step 1: A suspension of reporter cells was prepared in cell recovery medium containing 10% charcoal-stripped FBS, and dispensed into assay plates. The plates were pre-incubated for 6 hours in a cell culture incubator (37° C./5% CO2/85% humidity).
(§3) These intermediate stocks were subsequently diluted directly into compound screening medium containing 10% charcoal-stripped FBS to generate “2×-concentration” treatment media (containing 0.2, 0.4 or 0.8% DMSO).
(§4) Step 3: At the end of the pre-incubation period, culture media were discarded from the assay plates, and all wells received 100 μl of compound screening medium. 100 μl of each of the previously prepared “2×-concentration” treatment media were dispensed into duplicate assay wells, thereby achieving the desired final treatment concentrations. The final concentration of DMSO in all assay wells was 0.1, 0.2 or 0.4%. Assay plates were incubated for 24 hr in a cell culture incubator (37° C./5% CO2/85% humidity).
(§5) Step 4: At the 24 h assay endpoint, treatment media were discarded and 100 μl/well of luciferase detection reagent was added. Relative luminometer units (RLUs) were quantified from each assay well.

For another data set, the target named is T2, TRβ (Homo sapiens, UniProt P10828).
T2 construct: expressed in transfected cells; host or cells: HEK293
T2 sequence (P10828 217-461 limits assumed): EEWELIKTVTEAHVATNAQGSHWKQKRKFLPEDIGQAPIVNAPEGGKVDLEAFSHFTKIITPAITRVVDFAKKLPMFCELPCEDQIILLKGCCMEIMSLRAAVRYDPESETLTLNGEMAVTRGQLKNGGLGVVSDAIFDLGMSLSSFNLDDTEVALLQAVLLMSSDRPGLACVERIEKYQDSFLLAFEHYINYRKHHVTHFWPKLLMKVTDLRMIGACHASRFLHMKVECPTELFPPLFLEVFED
Briefly: Thyroid-hormone reporter-gene assay (TRβ-Gal4 hybrid, luciferase, HEK293). The data set is classed as cell-based. The following applies: for T3-SI (selectivity index): calculated as EC50 (TRα)/EC50 (TRβ). On the procedure:
as §1, §2, §3, §4, §5

[2] abbreviates: reporter cells, 24 hr incubation, Table 2, read-out: TRα (EC50).
Setting [3] is: reporter cells, 24 hr incubation, Table 2, read-out: TRβ (EC50).

Where two headings read alike, the source gives them in different places.

As for `CC(C)c1c(O)ccc(Cc2c(Cl)cc(OCC(=O)O)cc2Cl)c1F` [Compound 15, 2-(3,5-dichloro-4-(2-fluoro-4-hydroxy-3-isopropylbenzyl)phenoxy)acetic acid], in data set [1], the “AUC(4-hr) Heart” value is recorded as 25.8 ng-hr/g of tissue and the “AUC(4-hr) Liver” value was 580 ng-hr/g of tissue.
`CNC(=O)COc1cc(Cl)c(Cc2ccc(O)c(C(C)C)c2F)c(Cl)c1` [Compound 16, 2-(3,5-dichloro-4-(2-fluoro-4-hydroxy-3-isopropylbenzyl)phenoxy)-N-methylacetamide]: in data set [1], the “brain levels of parent acid Compound 15” value is given as “dramatic increase in brain concentration of the parent acid”.
Still for that read-out and setting: to `CC(C)c1c(O)ccc(Cc2c(Cl)cc(OCC(=O)N(C)C)cc2Cl)c1F` [Compound 17, 2-(3,5-dichloro-4-(2-fluoro-4-hydroxy-3-isopropylbenzyl)phenoxy)-N,N-dimethylacetamide] belongs “increase in the brain concentration of the parent acid”.
As to `CC(C)c1cc(Cc2c(Cl)cc(OCC(=O)O)c(F)c2Cl)ccc1O` [Compound 62, 2-(3,5-dichloro-2-fluoro-4-(4-hydroxy-3-isopropylbenzyl)phenoxy)acetic acid], in data set [1], the “AUC(4-hr) Heart” value is listed as 24.4 ng-hr/g of tissue and the “AUC(4-hr) Liver” value is 550 ng-hr/g of tissue.
As for `CNC(=O)COc1cc(C)c(Cc2ccc(O)c(C(C)C)c2)c(F)c1F` [Compound 133, 2-(2,3-difluoro-4-(4-hydroxy-3-isopropylbenzyl)-5-methylphenoxy)-N-methylacetamide], the EC50 at TRα (setting [2]) and on TRβ (setting [3]) was 0.01 to 0.1 µM each time. Further, at TRβ (Table 2), the “T3-SI (selectivity index)” value was “++ (3×<T3-SI≤30×)”.
Take `CCc1cc(OCC(=O)Nc2onc(C)c2C)cc(Cl)c1Cc1ccc(O)c(C(C)C)c1F` [Compound 142, 2-(3-chloro-5-ethyl-4-(2-fluoro-4-hydroxy-3-isopropylbenzyl)phenoxy)-N-(3,4-dimethylisoxazol-5-yl)acetamide]: the EC50 (commonly the midpoint of the concentration-response curve) on TRα (setting [2]) lay in the range of 0.1 to 1 µM; at TRβ (setting [3]) it was 0.01 to 0.1 µM. For the same compound, the “T3-SI (selectivity index)” value on TRβ (Table 2) was “++ (3×<T3-SI≤30×)”.
For `CNC(=O)COc1cc(C)c(Cc2ccc(O)c(C(C)C)c2)c(Cl)c1F` [Compound 143, 2-(3-chloro-2-fluoro-4-(4-hydroxy-3-isopropylbenzyl)-5-methylphenoxy)-N-methylacetamide], the EC50 on TRα (setting [2]) is 0.1 to 1 µM; at TRβ (setting [3]) it was 0.01 to 0.1 µM. The “T3-SI (selectivity index)” value at TRβ (Table 2) was “+++ (T3-SI>30×)”.
For `CCOC(=O)COc1cc(F)c(Cc2ccc(O)c(C(C)C)c2)c(Cl)c1F` [Compound 147, ethyl 2-(3-chloro-2,5-difluoro-4-(4-hydroxy-3-isopropylbenzyl)phenoxy)acetate], in that order: greater than 1 µM, 0.1 to 1 µM and “+++ (T3-SI>30×)”.
For `CCOC(=O)COc1cc(Cl)c(Cc2ccc(O)c(C(C)C)c2)c(Cl)c1OC` [Compound 165, ethyl 2-(3,5-dichloro-4-(4-hydroxy-3-isopropylbenzyl)-2-methoxyphenoxy)acetate], in that order: 0.1 to 1 µM, 0.1 to 1 µM and “++ (3×<T3-SI≤30×)”.
As to `CNC(=O)COc1cc(Cl)c(Cc2ccc(O)c(C(C)C)c2)c(Cl)c1OC` [Compound 167, 2-(3,5-dichloro-4-(4-hydroxy-3-isopropylbenzyl)-2-methoxyphenoxy)-N-methylacetamide], the EC50 at TRα (setting [2]) and at TRβ (setting [3]) was 0.01 to 0.1 µM in each case. For the same compound, the “T3-SI (selectivity index)” value at TRβ (Table 2) was “++ (3×<T3-SI≤30×)”.
With `CC(C)c1cc(Cc2c(Cl)cc(OCC(=O)O)cc2Cl)ccc1O` [JD-21, reference compound], the EC50 on TRα (Table 3, read-out: EC50-TRα) was found to be 0.19 µM; at TRβ (Table 3, read-out: EC50-TRβ) it was 0.079 µM. The compound also registered a T3-SI at TRβ (selectivity index, Table 3) of 14.
